# Measurements: PubChem BioAssay AID256 (DTP/NCI, 2004)
# Several values for one entry are separate records, joined by “and”; a condition that tells them apart may be missing. Equal entries are not always repeated. Toxic doses and inconclusive results are not listed.
# Test system: CD2F1 mice, L1210 leukemia ip, survival T/C
# Experiment: NCI In Vivo Anticancer Drug Screen. Data for tumor model L1210 Leukemia (intraperitoneal) in CD2F1 (CDF1) mice
# Details: endpoint: mean survival time, higher = longer survival
# Method in brief: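 Mice carrying a transplanted tumor received test compound or vehicle alone. The value is the measurement in the treated group divided by that in the vehicle-treated control group.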
# [1] = dose: 100.0 mg/kg/injection, schedule: Q04DX002 (ip), vehicle: saline with Tween-80
# [2] = dose: 200.0 mg/kg/injection, schedule: Q04DX002 (ip), vehicle: saline with Tween-80
# [3] = dose: 400.0 mg/kg/injection, schedule: Q04DX002 (ip), vehicle: saline with Tween-80
# [4] = dose: 100.0 mg/kg/injection, schedule: Q01DX009 (ip), vehicle: saline with Tween-80
# [5] = dose: 200.0 mg/kg/injection, schedule: Q01DX009 (ip), vehicle: saline with Tween-80
# [6] = dose: 100.0 mg/kg/injection, schedule: Q01DX001 (ip), vehicle: saline
# [7] = dose: 200.0 mg/kg/injection, schedule: Q01DX001 (ip), vehicle: saline
# [8] = dose: 400.0 mg/kg/injection, schedule: Q01DX001 (ip), vehicle: saline
# [9] = dose: 25.0 mg/kg/injection, schedule: Q01DX009 (ip), vehicle: saline with Tween-80
# [10] = dose: 50.0 mg/kg/injection, schedule: Q01DX009 (ip), vehicle: saline with Tween-80
# [11] = dose: 12.5 mg/kg/injection, schedule: Q01DX009 (ip), vehicle: saline with Tween-80
# [12] = dose: 100.0 mg/kg/injection, schedule: Q04DX003 (ip), vehicle: saline with Tween-80
# [13] = dose: 400.0 mg/kg/injection, schedule: Q04DX003 (ip), vehicle: saline with Tween-80
structure (smiles),measurement,setting,value
NC(CN1CCCCC1)C(=O)O (centres undefined),T/C,[1],98 % of control
same,T/C,[2],90 % of control
same,T/C,[3],94 % of control
CC1C=COCCO1 (centres undefined) (tested in a mixture with another compound),T/C,"dose: 100.0 mg/kg/injection, schedule: Q04DX003 (ip), vehicle: acetone",97 % of control
same,T/C,"dose: 200.0 mg/kg/injection, schedule: Q04DX003 (ip), vehicle: acetone",98 % of control
same,T/C,"dose: 400.0 mg/kg/injection, schedule: Q04DX003 (ip), vehicle: acetone",98 % of control
CC1(C(=O)O)CCCC2(C)c3cc(O)ccc3CCC12 (centres undefined),T/C,"dose: 50.0 mg/kg/injection, schedule: Q01DX009 (ip), vehicle: Klucel (hydroxypropylcellulose) (HPC)",94 % of control
same,T/C,"dose: 100.0 mg/kg/injection, schedule: Q01DX009 (ip), vehicle: Klucel (hydroxypropylcellulose) (HPC)",90 % of control
O=C(O)CCc1cc([N+](=O)[O-])c(O)c([N+](=O)[O-])c1,T/C,[4],94 % of control
same,T/C,[5],89 % of control
CC(C)C/C(=N\Nc1ccccc1)c1ccccn1,T/C,[6],101 % of control
same,T/C,[7],100 % of control
same,T/C,[8],97 % of control
CN(C)C(=O)Nc1ccc(F)cc1,T/C,[1],97 % of control
same,T/C,[2],102 % of control
same,T/C,[3],91 % of control
COC(=O)C(C#N)=C(C)C,T/C,"dose: 10.0 mg/kg/injection, schedule: Q01DX009 (ip), vehicle: saline with Tween-80",110 % of control
same,T/C,"dose: 10.0 mg/kg/injection, schedule: Q04DX003 (ip), vehicle: saline",96 % of control
same,T/C,"dose: 20.0 mg/kg/injection, schedule: Q01DX009 (ip), vehicle: saline with Tween-80",101 % of control
same,T/C,"dose: 20.0 mg/kg/injection, schedule: Q04DX003 (ip), vehicle: saline",96 % of control
same,T/C,"dose: 40.0 mg/kg/injection, schedule: Q01DX009 (ip), vehicle: saline with Tween-80",104 % of control
same,T/C,"dose: 40.0 mg/kg/injection, schedule: Q04DX003 (ip), vehicle: saline",96 % of control
COC(=O)NC1=C(N2CC2)C(=O)C(NC(=O)OC)=C(N2CC2)C1=O,T/C,"dose: 0.75 mg/kg/injection, schedule: Q01DX009 (ip), vehicle: saline",154 % of control
same,T/C,"dose: 1.5 mg/kg/injection, schedule: Q01DX009 (ip), vehicle: saline",175 % of control
CC1=NN(c2ccccc2)C(=O)C1(Br)Br,T/C,[9],96 % of control
same,T/C,[10],98 % of control
C[Si](C)(C)C1C=CC=C1,T/C,[1],100 % of control
same,T/C,[2],100 % of control
same,T/C,[3],92 % of control
N#Cc1nc(C#N)c(Sc2ccccc2)c(Sc2ccccc2)c1Sc1ccccc1,T/C,"dose: 3.12 mg/kg/injection, schedule: Q01DX009 (ip), vehicle: saline with Tween-80",103 % of control and 104 % of control
same,T/C,"dose: 6.25 mg/kg/injection, schedule: Q01DX009 (ip), vehicle: saline with Tween-80",94 % of control and 100 % of control
same,T/C,[11],94 % of control
same,T/C,[9],96 % of control and 102 % of control
same,T/C,[10],90 % of control and 102 % of control
same,T/C,[4],96 % of control and 103 % of control
Cc1ccc(CNC2=C(Cl)C(=O)c3ccccc3C2=O)cc1,T/C,"dose: 6.25 mg/kg/injection, schedule: Q04DX003 (ip), vehicle: saline with Tween-80",95 % of control
same,T/C,"dose: 12.5 mg/kg/injection, schedule: Q04DX003 (ip), vehicle: saline with Tween-80",98 % of control
same,T/C,"dose: 25.0 mg/kg/injection, schedule: Q04DX003 (ip), vehicle: saline with Tween-80",94 % of control and 97 % of control
N#CCN1CCc2ccccc2C1,T/C,"dose: 100.0 mg/kg/injection, schedule: Q04DX003 (ip), vehicle: Klucel (hydroxypropylcellulose) (HPC)",94 % of control
same,T/C,"dose: 200.0 mg/kg/injection, schedule: Q04DX003 (ip), vehicle: Klucel (hydroxypropylcellulose) (HPC)",94 % of control
CC1(C)N=C(N)N=C(N)N1c1ccc(CCc2ccccc2)cc1,T/C,[11],95 % of control
same,T/C,[9],87 % of control
COc1ccc2c(c1)OC(OC)(c1ccc(OC)c(OC)c1)C(O)(OC)C2=O (centres undefined),T/C,"dose: 50.0 mg/kg/injection, schedule: Q01DX001 (ip), vehicle: saline",102 % of control
same,T/C,[6],98 % of control
same,T/C,[7],98 % of control
same,T/C,[8],96 % of control
C=CCC(C)C(C)C (centres undefined),T/C,"dose: 50.0 mg/kg/injection, schedule: Q01DX009 (ip), vehicle: saline",96 % of control
same,T/C,"dose: 100.0 mg/kg/injection, schedule: Q01DX009 (ip), vehicle: saline",100 % of control
same,T/C,"dose: 200.0 mg/kg/injection, schedule: Q01DX009 (ip), vehicle: saline",100 % of control
CC1(CCO)NC(=O)NC1=O (centres undefined),T/C,"dose: 100.0 mg/kg/injection, schedule: Q01DX009 (ip), vehicle: saline sonified",97 % of control
same,T/C,"dose: 100.0 mg/kg/injection, schedule: Q04DX003 (ip), vehicle: saline",100 % of control
same,T/C,"dose: 200.0 mg/kg/injection, schedule: Q01DX009 (ip), vehicle: saline sonified",97 % of control
same,T/C,"dose: 200.0 mg/kg/injection, schedule: Q04DX003 (ip), vehicle: saline",96 % of control
same,T/C,"dose: 400.0 mg/kg/injection, schedule: Q01DX009 (ip), vehicle: saline sonified",97 % of control
same,T/C,"dose: 400.0 mg/kg/injection, schedule: Q04DX003 (ip), vehicle: saline",100 % of control
CN(Cc1c[nH]c2nc(N)nc(N)c2c1=O)c1ccc(C(=O)NC(CCC(=O)O)C(=O)O)cc1 (centres undefined),T/C,"dose: 0.5 mg/kg/injection, schedule: Q01DX005 (ip), vehicle: sodium bicarbonate",97 % of control and 98 % of control
same,T/C,"dose: 1.0 mg/kg/injection, schedule: Q01DX005 (ip), vehicle: distilled water + Tween-80",105 % of control
same,T/C,"dose: 1.0 mg/kg/injection, schedule: Q01DX005 (ip), vehicle: sodium bicarbonate",91 % of control and 108 % of control
same,T/C,"dose: 2.0 mg/kg/injection, schedule: Q01DX005 (ip), vehicle: distilled water + Tween-80",102 % of control
same,T/C,"dose: 2.0 mg/kg/injection, schedule: Q01DX005 (ip), vehicle: sodium bicarbonate",97 % of control and 103 % of control
same,T/C,"dose: 4.0 mg/kg/injection, schedule: Q01DX005 (ip), vehicle: distilled water + Tween-80",100 % of control
same,T/C,"dose: 4.0 mg/kg/injection, schedule: Q01DX005 (ip), vehicle: sodium bicarbonate",121 % of control and 104 % of control
same,T/C,"dose: 8.0 mg/kg/injection, schedule: Q01DX005 (ip), vehicle: distilled water + Tween-80",97 % of control
same,T/C,"dose: 8.0 mg/kg/injection, schedule: Q01DX005 (ip), vehicle: sodium bicarbonate",101 % of control
same,T/C,"dose: 16.0 mg/kg/injection, schedule: Q01DX005 (ip), vehicle: distilled water + Tween-80",102 % of control
same,T/C,"dose: 16.0 mg/kg/injection, schedule: Q01DX005 (ip), vehicle: sodium bicarbonate",98 % of control and 102 % of control
CCCCCCCCOC(=O)c1c(Cl)c(Cl)c(C(=O)OCCCCCCCC)c(Cl)c1Cl,T/C,[4],98 % of control
same,T/C,[12],97 % of control
same,T/C,[5],102 % of control
same,T/C,"dose: 200.0 mg/kg/injection, schedule: Q04DX003 (ip), vehicle: saline with Tween-80",97 % of control
same,T/C,"dose: 400.0 mg/kg/injection, schedule: Q01DX009 (ip), vehicle: saline with Tween-80",96 % of control
same,T/C,[13],97 % of control
[Cl][Pt+2][Cl].[NH-]C1CCCC1.[NH2-],T/C,"dose: 0.39 mg/kg/injection, schedule: Q04DX003 (ip), vehicle: water",106 % of control
same,T/C,"dose: 0.78 mg/kg/injection, schedule: Q04DX003 (ip), vehicle: water",122 % of control
same,T/C,"dose: 3.12 mg/kg/injection, schedule: Q04DX003 (ip), vehicle: saline with Tween-80",182 % of control
same,T/C,"dose: 3.13 mg/kg/injection, schedule: Q04DX003 (ip), vehicle: water",156 % of control
CC(=O)OCC1OC(n2cnc(N)nc2=O)C(OC(C)=O)C1OC(C)=O (centres undefined),T/C,"dose: 1.56 mg/kg/injection, schedule: Q01DX009 (ip), vehicle: saline",121 % of control
same,T/C,"dose: 3.12 mg/kg/injection, schedule: Q01DX009 (ip), vehicle: saline",158 % of control
same,T/C,"dose: 6.25 mg/kg/injection, schedule: Q01DX009 (ip), vehicle: saline",161 % of control
same,T/C,"dose: 12.5 mg/kg/injection, schedule: Q01DX009 (ip), vehicle: saline",169 % of control
same,T/C,"dose: 25.0 mg/kg/injection, schedule: Q01DX009 (ip), vehicle: saline",110 % of control and 111 % of control
O=C1c2ccccc2C(Cl)=C(Cl)C1(Cl)Cl,T/C,[11],92 % of control
same,T/C,[9],101 % of control
same,T/C,[10],101 % of control
same,T/C,[12],96 % of control
same,T/C,[13],100 % of control
CN(C)c1ccc(/C=N\NC(=O)CNC(=O)Nc2ccc(F)cc2)c(Cl)c1,T/C,[10],100 % of control
same,T/C,[4],88 % of control
same,T/C,[5],92 % of control
